In test [1] the target is Methionine aminopeptidase 1 (Homo sapiens, UniProt P53582). As to the kind of experiment: Inhibitory activity against human methionine aminopeptidase-1.
In test [2] the target is Methionine aminopeptidase 2 (Homo sapiens, UniProt P50579). Kind of test: Inhibitory activity against human methionine aminopeptidase-2.
The species named for the next test is Homo sapiens. Kind of test: Inhibitory activity against proliferation of human microvascular endothelial cell.

A value given as a limit tells only on which side of the number the result lay.

Methionine aminopeptidase 2, sequence (P50579 whole entry): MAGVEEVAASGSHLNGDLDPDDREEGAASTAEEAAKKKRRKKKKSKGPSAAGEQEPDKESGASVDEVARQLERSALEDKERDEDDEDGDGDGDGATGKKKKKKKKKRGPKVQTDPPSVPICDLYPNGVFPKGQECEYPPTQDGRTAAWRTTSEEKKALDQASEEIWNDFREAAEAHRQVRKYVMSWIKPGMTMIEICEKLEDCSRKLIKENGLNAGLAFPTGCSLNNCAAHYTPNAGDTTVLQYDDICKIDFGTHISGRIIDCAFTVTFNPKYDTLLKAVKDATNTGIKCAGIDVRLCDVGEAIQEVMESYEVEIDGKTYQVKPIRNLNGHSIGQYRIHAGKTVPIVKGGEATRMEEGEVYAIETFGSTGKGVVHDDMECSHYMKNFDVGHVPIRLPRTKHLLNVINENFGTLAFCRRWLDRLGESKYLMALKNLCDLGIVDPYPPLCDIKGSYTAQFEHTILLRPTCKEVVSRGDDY

Turning to `CCCSC[C@@H](N)[C@H](O)C(=O)NNc1ccc(C)cc1`, half-maximal inhibition in test [1] (IC50) required 5 µM.

Consider `CCOC(=O)[C@@H](C)NC(=O)[C@@H](O)[C@H](N)CC1CCCCC1`, for which the IC50 in test [1] is over 100 µM.

Regarding `N[C@H](CC1CCCCC1)[C@H](O)C(=O)NOc1ccccc1`, inhibition in test [1] was half-maximal at 20 µM (IC50). In other words, the double-digit micromolar range.

Regarding `CN(Cc1cccc2ccccc12)C(=O)[C@@H](O)[C@H](N)CCc1ccccc1`, the IC50 in test [1] is over 100 µM.

For the compound `CCSCC[C@@H](N)[C@H](O)C(=O)NOc1ccccc1`, 1.3 µM corresponded to half-maximal inhibition in test [1] (IC50).

In test [2], `CC(C)[C@H](C)NC(=O)[C@@H](O)[C@H](N)CC1CCCCC1` showed an IC50 of over 100 µM.

In the case of `CC(C)SCC[C@@H](N)[C@H](O)C(=O)N[C@@H](CO)c1ccccc1`, the IC50 in test [1] worked out at 32 µM.

`Cc1ccc(NNC(=O)[C@@H](O)[C@H](N)CSCC(C)C)cc1`: half-maximal inhibition in test [1] (IC50) required 6.8 µM.

Consider `CC(C)CSC[C@@H](N)[C@H](O)C(=O)NCCc1ccc(Cl)cc1Cl`, for which 53 µM corresponded to half-maximal inhibition in test [1] (IC50).

With `N[C@H](CCc1ccccc1)[C@H](O)C(=O)N[C@@H](CO)c1ccccc1`, half-maximal inhibition in test [1] (IC50) was put at 75 µM.

In turn, `CCOC(=O)[C@H](C)NC(=O)C(O)[C@H](N)CSC(C)(C)C` (stereo partly specified) displayed an IC50 in test [1] of 14 µM.

Turning to `CCSCC[C@@H](N)[C@H](O)C(=O)N(C)Cc1cccc2ccccc12`, it took 12 µM to reach half-maximal inhibition in test [1] (IC50).

`CCOC(=O)[C@H](C)NC(=O)C(O)[C@H](N)CSC(C)C` (stereo partly specified): the IC50 in test [1] came to 13 µM.

`CCSCC[C@@H](N)[C@H](O)C(=O)NNc1ccc(C)cc1` gave a concentration for half-maximal inhibition (IC50) in test [1] of 1.3 µM.

In turn, `CCCSC[C@@H](N)[C@H](O)C(=O)N[C@@H](CO)c1ccccc1` gave a half-inhibitory concentration (IC50) in test [1] of 12 µM.

For the compound `CCCC[C@@H](N)C(O)C(=O)N[C@@H](C)C(=O)OCC` (stereo partly specified), it took 100 µM to reach half-maximal inhibition in test [1] (IC50).

In test [1], `N[C@H](CC1CCCCC1)[C@H](O)C(=O)NNC(=O)c1cc(Cl)ccc1Cl` yielded an IC50 of over 100 µM.

`CCOC(=O)[C@H](C)NC(=O)C(O)[C@H](N)CCSC` (stereo partly specified) displayed an IC50 in test [1] of 63 µM.

With `CCOC(=O)[C@H](C)NC(=O)C(O)[C@H](N)CSCC1CCCCC1` (stereo partly specified), the IC50 in test [1] was over 100 µM.

`N[C@H](CC1CCCCC1)[C@H](O)C(=O)N[C@@H](CO)c1ccccc1` displayed an IC50 in test [1] of 68 µM.

As to `CC(NC(=O)[C@@H](O)[C@H](N)CC1CCCCC1)c1ccc2ccccc2c1` (stereo partly specified), the half-inhibitory concentration (IC50) in test [1] was found to be 5.3 µM.

On to `CCOC(=O)[C@H](C)NC(=O)C(O)[C@H](N)CCc1ccccc1` (stereo partly specified), for which the IC50 in test [1] was 101 µM.

The compound `N[C@H](CC1CCCCC1)[C@H](O)C(=O)NNc1cccc2ccccc12` had an IC50 in test [1] of 58 µM.

Compound `C[C@H](NC(=O)[C@@H](O)[C@H](N)CSCC1CCCCC1)c1cccc2ccccc12` registered a concentration for half-maximal inhibition (IC50) in test [1] of 45 µM.

As to `CCSCC[C@@H](N)[C@H](O)C(=O)NNC(=O)c1cccc(Cl)c1`, the IC50 in test [1] worked out at 8.7 µM.

With `CCCSC[C@@H](N)[C@H](O)C(=O)NNC(=O)c1cccc(Cl)c1`, it took 11 µM to reach half-maximal inhibition in test [1] (IC50).

`CCOC(=O)C(C)(C)NC(=O)[C@@H](O)[C@H](N)CC1CCCCC1` yielded an IC50 in test [1] of over 100 µM.

For the compound `CCOC(=O)[C@H](C)NC(=O)C(O)[C@H](N)CSCC(C)C` (stereo partly specified), the IC50 in test [1] was 66 µM.

With `CCSCC[C@@H](N)[C@H](O)C(=O)NNC(=O)c1ccc2ccccc2c1`, in test [1], the IC50 worked out at 15 µM.

On to `N[C@H](CC1CCCCC1)[C@H](O)C(=O)NCCc1ccc(Cl)cc1Cl`, for which, in test [1], the IC50 came out at 63 µM.

`CN(Cc1cccc2ccccc12)C(=O)[C@@H](O)[C@H](N)CC1CCCCC1` returned an IC50 in test [1] of 78 µM.

For `CCCSC[C@@H](N)[C@H](O)C(=O)NCCc1ccc(Cl)cc1Cl`, in test [1], the IC50 amounted to 24 µM. Compared with the last compound, the IC50 is about 3.2-fold lower.

With `CCCSC[C@@H](N)[C@H](O)C(=O)NOc1ccccc1`, 1.7 µM corresponded to half-maximal inhibition in test [1] (IC50).

Regarding `CC(C)SCC[C@@H](N)[C@H](O)C(=O)NNC(=O)c1ccc2ccccc2c1`, in test [1], the IC50 was 18 µM.

`Cc1ccc(NNC(=O)[C@@H](O)[C@H](N)CCc2ccccc2)cc1` showed an IC50 in test [1] of 16 µM.

In the case of `CCOC(=O)[C@H](C)NC(=O)C(O)[C@H](N)CCSCC` (stereo partly specified), half-maximal inhibition in test [1] (IC50) required 69 µM.

Turning to `N[C@H](C1CCCCC1)[C@H](O)C(=O)NNC(=O)c1cccc(Cl)c1`, the concentration for half-maximal inhibition (IC50) in test [1] was 46 µM. This IC50 lies about 1.5-fold lower than the previous one.

As for `CC(C)CSC[C@@H](N)[C@H](O)C(=O)N(C)Cc1cccc2ccccc12`, in test [1], inhibition was half-maximal at 19 µM (IC50). This IC50 is about 2.4-fold lower than that of the compound before.

Compound `CC(C)CSC[C@@H](N)[C@H](O)C(=O)NOc1ccccc1` showed an IC50 in test [1] of 1.5 µM.

`C[C@H](NC(=O)[C@@H](O)[C@H](N)CC1CCCCC1)C(=O)O`: the IC50 in test [1] is over 100 µM.

The compound `N[C@H](C1CCCCC1)C(O)C(=O)NOc1ccccc1` (stereo partly specified) registered an IC50 in test [1] of 95 µM.

As for `CCCSC[C@@H](N)C(O)C(=O)N[C@@H](C)C(=O)OCC` (stereo partly specified), half-maximal inhibition in test [1] (IC50) was put at 57 µM. This IC50 lies about 1.7-fold lower than the previous one.

In the case of `Cc1ccc(NNC(=O)[C@@H](O)[C@H](N)CCSC(C)C)cc1`, inhibition in test [1] was half-maximal at 11 µM (IC50).

For `N[C@H](CC1CCCCC1)[C@H](O)C(=O)NCc1ccc2ccccc2c1`, in test [1], the IC50 was 12 µM.

In test [1], `N[C@H](C1CCCCC1)[C@H](O)C(=O)N[C@@H](CO)c1ccccc1` registered an IC50 of 79 µM.

As to `CC(C)SCC[C@@H](N)[C@H](O)C(=O)NNC(=O)c1cccc(Cl)c1`, the IC50 in test [1] is 56 µM; in the test listed under Homo sapiens, 0.1 µM.

In turn, `N[C@H](C1CCCCC1)[C@H](O)C(=O)NNc1cccc2ccccc12` displayed a concentration for half-maximal inhibition (IC50) in test [1] of 89 µM. This lies in the double-digit micromolar range.

In turn, `CC(C)SCC[C@@H](N)[C@H](O)C(=O)N(C)Cc1cccc2ccccc12` displayed an IC50 in test [1] of 81 µM.

On to `N[C@H](CC1CCCCC1)[C@H](O)C(=O)NNC(=O)c1ccc2ccccc2c1`, for which half-maximal inhibition in test [1] (IC50) required 63 µM.

With `CC(C)CSC[C@@H](N)[C@H](O)C(=O)N[C@@H](CO)c1ccccc1`, the IC50 in test [1] came to 11 µM.

As for `N[C@H](CCc1ccccc1)[C@H](O)C(=O)NNc1cccc2ccccc12`, in test [1], inhibition was half-maximal at 93 µM (IC50).

In turn, `CC(C)CSC[C@@H](N)[C@H](O)C(=O)NNc1cccc2ccccc12` returned an IC50 in test [1] of 34 µM.

In turn, `CCOC(=O)[C@H](C)NC(=O)[C@@H](O)[C@H](N)CC1CCCCC1` had an IC50 in test [1] of 84 µM.

Take `Cc1ccc(NNC(=O)[C@@H](O)[C@H](N)CC2CCCCC2)cc1`: the IC50 in test [1] came out at 14 µM.

On to `N[C@H](CSCC1CCCCC1)[C@H](O)C(=O)NCCc1ccc(Cl)cc1Cl`, for which the IC50 in test [1] is over 100 µM.

As to `CCSCC[C@@H](N)[C@H](O)C(=O)NNc1cccc2ccccc12`, the IC50 in test [1] stood at 8.9 µM. That is a single-digit micromolar value.

In test [1], `N[C@H](CC1CCCCC1)[C@H](O)C(=O)NNC(=O)c1cccc(Cl)c1` yielded an IC50 of over 100 µM.

On to `CCOC(=O)[C@H](C)NC(=O)C(O)[C@H](N)CC1CCCCC1` (stereo partly specified), for which inhibition in test [1] was half-maximal at 84 µM (IC50). In other words, the double-digit micromolar range.

Consider `CCOC(=O)[C@H](C)NC(=O)C(O)[C@H](N)CCC1CCCCC1` (stereo partly specified), for which, in test [1], inhibition was half-maximal at 137 µM (IC50). Against the preceding compound, the IC50 is about 1.6-fold higher.

As to `COc1cccc(NC(=O)[C@@H](O)[C@H](N)CC2CCCCC2)c1`, the IC50 in test [1] amounted to 90 µM.

In test [1], `CC(C)SCC[C@@H](N)C(O)C(=O)NOc1ccccc1` (single isomer, unassigned) returned an IC50 of 4.7 µM.

In test [1], `C[C@H](NC(=O)C(O)[C@H](N)CCc1ccccc1)c1cccc2ccccc12` (single isomer, unassigned) showed an IC50 of 12 µM.

In test [1], `N[C@H](C1CCCCCCC1)C(O)C(=O)NOc1ccccc1` (single isomer, unassigned) yielded an IC50 of over 100 µM.

For `CC(C)SCC[C@@H](N)C(O)C(=O)NCCc1ccc(Cl)cc1Cl` (single isomer, unassigned), in test [1], inhibition was half-maximal at 69 µM (IC50).

Turning to `N[C@H](CCc1ccccc1)C(O)C(=O)NOc1ccccc1` (single isomer, unassigned), in test [1], half-maximal inhibition (IC50) was put at 13 µM.

As usually defined, the IC50 is the point on the concentration scale where inhibition reaches its midpoint. A higher IC50 goes with weaker potency in that assay.
